# Reference: PubChem BioAssay AID434951 (Broad Institute, 2010)
# Active and inactive are the calls of the source.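 The calls were made as follows: active = a fitted half-maximal concentration EC50 for the rise in nuclear signal no higher than ten times the top dose tested; inconclusive = flat fit with activity between 30% and 70%, or unusable fit; inactive = EC50 beyond ten times the top dose.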
# Target: Hypoxia-inducible factor 1-alpha (Homo sapiens) (UniProt Q16665)
# Test: HIF pathway activation, GFP-HIF1alpha translocation – imaging, fluorescence, U2OS GFP-HIF1alpha, confirmation (AID 434951)
# Settings: U2OS GFP-HIF1alpha nuclear intensity, high-content imaging
# Hypoxia-inducible factor 1-alpha (Homo sapiens), sequence (Q16665 whole entry, looked up): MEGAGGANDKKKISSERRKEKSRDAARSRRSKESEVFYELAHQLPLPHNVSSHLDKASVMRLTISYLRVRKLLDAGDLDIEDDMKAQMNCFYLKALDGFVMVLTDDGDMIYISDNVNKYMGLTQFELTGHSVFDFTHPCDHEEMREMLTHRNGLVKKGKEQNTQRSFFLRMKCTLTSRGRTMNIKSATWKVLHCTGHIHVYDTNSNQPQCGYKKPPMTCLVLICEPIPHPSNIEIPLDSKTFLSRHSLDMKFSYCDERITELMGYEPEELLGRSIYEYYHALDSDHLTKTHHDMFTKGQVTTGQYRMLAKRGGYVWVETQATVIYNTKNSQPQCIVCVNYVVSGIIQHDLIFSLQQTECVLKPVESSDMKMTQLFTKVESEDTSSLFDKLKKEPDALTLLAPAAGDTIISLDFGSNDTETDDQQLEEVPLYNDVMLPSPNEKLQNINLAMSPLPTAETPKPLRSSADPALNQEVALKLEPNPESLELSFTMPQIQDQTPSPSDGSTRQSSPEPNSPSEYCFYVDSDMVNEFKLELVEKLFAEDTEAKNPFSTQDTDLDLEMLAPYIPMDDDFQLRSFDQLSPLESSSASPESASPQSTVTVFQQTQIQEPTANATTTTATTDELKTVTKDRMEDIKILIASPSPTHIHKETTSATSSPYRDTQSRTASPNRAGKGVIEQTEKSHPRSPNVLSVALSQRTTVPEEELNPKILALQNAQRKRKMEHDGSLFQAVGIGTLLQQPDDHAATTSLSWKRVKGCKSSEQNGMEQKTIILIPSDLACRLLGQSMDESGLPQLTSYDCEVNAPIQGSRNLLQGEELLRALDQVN
row,Structure (SMILES),EC50
1,COc1ccc2oc(=O)c(C(=O)NC3CCCCCC3)cc2c1,> 35 µM (inactive)
2,Cc1ccc(S(=O)(=O)/N=C2/NC(=O)/C(=C/c3cc([N+](=O)[O-])ccc3O)S2)cc1,> 35 µM (inactive)
3,CC(=O)Nc1ccc(S(=O)(=O)/N=C2\C(=O)c3ccccc3C([O-])=C2n2cc[n+](-c3ccccn3)c2)cc1,> 35 µM (inactive)
4,O=[N+]([O-])c1ccc(O)c(/C=N/Nc2ccccn2)c1,6.39 µM
5,Cc1sc2cc3c(c(C(=O)c4ccccc4)[n+]2c1C)-c1cccc2cccc-3c12,> 35 µM (inactive)
6,Cc1ccc(NC(=S)N(Cc2cccs2)Cc2cc3cccc(C)c3[nH]c2=O)cc1,> 35 µM (inactive)
7,O=C(NCCSc1c[nH]c2ccccc12)c1ccc(Br)o1,> 35 µM (inactive)
8,O=C(N/N=C/c1cc(Br)cc(Cl)c1O)c1ccc2c(c1)OCO2,> 35 µM (inactive)
9,Cc1ccc(C(CC(=O)O)C2CCOC(C)(C)C2)cc1 (stereo unspecified),> 35 µM (inactive)
10,COc1ccc(N/N=C/c2c(C(=O)O)ccc3ccccc23)cc1,6.81 µM
11,C=CCNc1nc(-c2ccccn2)nnc1-c1ccccc1,7.41 µM
12,CCOC(=O)CN(C(=O)COc1nc(C)cc(C)c1C#N)c1cccc(Cl)c1,> 35 µM (inactive)
13,Cc1ccc(NC2CCCN(C(=O)C3CCCCC3)C2)cc1C (stereo unspecified),> 35 µM (inactive)
14,CC(=O)Nc1ccc(NC(=O)CCC(=O)OCC(=O)c2ccc(F)cc2)cc1,> 35 µM (inactive)
15,C=CCOc1ccc(/C=C2\SC(=Nc3cccnc3)NC2=O)cc1,> 35 µM (inactive)
16,CCCCCCn1nc(C(=O)Nc2nc3c(s2)CCCC3)c2ccccc2c1=O,> 35 µM (inactive)
17,CC(=O)Nc1sc(-c2ccccc2)nc1-c1ccccc1,> 35 µM (inactive)
18,Cc1ccc(-c2cc(C(F)(F)F)n3nc(C(=O)Nc4c(C)n(C)n(-c5ccccc5)c4=O)cc3n2)cc1,> 35 µM (inactive)
19,O=C1CSCN1c1ccc(Cl)cc1,> 35 µM (inactive)
20,CCOC(=O)/C(=N\Nc1cccc(C(F)(F)F)c1)N1CCOCC1,> 35 µM (inactive)
21,COc1ccc(N/C=C\C(=O)c2ccc3c(c2)OCO3)cc1,> 35 µM (inactive)
22,CC(C)NC(=O)NC(=O)CSc1nnc(-c2ccccc2F)n1N,> 35 µM (inactive)
23,O=C(CSC1=NNC(c2ccccn2)S1)Nc1ccc(C(F)(F)F)cc1 (stereo unspecified),10.4 µM
24,O=c1c2ccccc2nc2c3ccccc3c(NCCN3CCOCC3)nn12,> 35 µM (inactive)
25,O=C(NCCCn1ccnc1)c1cc(-c2ccccc2)on1,3.8 µM
26,Cc1cc(C)cc(NC(=O)c2cccc(NC(=O)c3ccco3)c2)c1,> 35 µM (inactive)

row,Structure (SMILES),EC50
1,CC(Oc1ccc2c3c(c(=O)oc2c1)CCCC3)C(=O)NCC(O)c1ccccc1 (stereo unspecified),> 35 µM (inactive)
2,COc1ccc(C2NC(=S)NC3=C2CCCC3=C2SCCS2)cc1 (stereo unspecified),17.8 µM
3,CCC(=O)n1nc(NCc2ccc(OC)c(OC)c2)nc1NCc1ccc(OC)c(OC)c1,> 35 µM (inactive)
4,Nc1ccnn1-c1ccccc1,> 35 µM (inactive)
5,Cc1cc(SCC(=O)N/N=C/c2ccc(O)c(O)c2O)c(C)cc1Br,> 35 µM (inactive)
6,CCOC(=O)/C(C#N)=C/C=C1\C=Cc2ccccc2N1CC,> 35 µM (inactive)
7,COC(=O)c1ccc(CSc2nc3c(c(=O)n2-c2ccc(F)cc2)SCC3)o1,> 35 µM (inactive)
8,CN(C)C(=O)CSc1nc2ccccc2n1Cc1ccccc1,> 35 µM (inactive)
9,NC(=S)NNC(=O)c1cc(C(F)(F)F)cc(C(F)(F)F)c1,> 35 µM (inactive)
10,CCOC(=O)c1c(S(=O)(=O)N2CCCC2)c(C)n(C)c1C,> 35 µM (inactive)
11,O=C(CCCCCCC(=O)Nc1ccccc1)NO,5.94 µM
12,COc1cccc(/C=N/Nc2ccc([N+](=O)[O-])cn2)c1O,4.93 µM
13,CCN(CC)c1ccc(/C=N/NC(=O)c2ccoc2C)c(O)c1,10.9 µM
14,CCN(CC)c1ccc(/C=N/NC(=O)c2cccc(S(=O)(=O)Nc3ccccc3OC)c2)c(O)c1,0.838 µM
15,CS(=O)(=O)c1cccc(C(=O)N(CCc2ccccc2)Cc2cccs2)c1,> 35 µM (inactive)
16,Cc1cc(NC(=O)CCCS(=O)(=O)c2nc(-c3cccs3)cc(C(F)(F)F)n2)no1,> 35 µM (inactive)
17,O=C(O)c1cccnc1SCc1ccccc1Cl,> 35 µM (inactive)
18,CCOc1cc(/C=N/NC(=O)c2cccnc2)ccc1OCc1ccc(C(=O)OC)o1,> 35 µM (inactive)
19,CC(C)CC1NC(=O)N(Cc2cc(=O)n3ccsc3n2)C1=O (stereo unspecified),> 35 µM (inactive)
20,Oc1ccccc1N=Nc1ccccc1O,2.01 µM
21,COc1ccc(NC(=O)c2cccs2)cn1,> 35 µM (inactive)
22,Cc1nnsc1C(=O)N/N=C/c1ccc2ccccc2c1O,3.13 µM
23,NS(=O)(=O)c1ccc(NC(=O)c2ccc(CSc3ccccc3)o2)cc1,> 35 µM (inactive)
24,O=C(N/N=C\c1c(O)ccc2ccccc12)c1ccc(Cn2cccn2)o1,5.3 µM
25,CCCCC(=O)NC(c1ccccc1)c1ccc2cccnc2c1O (stereo unspecified),17.4 µM
